Active and inactive are the calls of the source. The rule behind the calls is not given here.
Tests used:
[1] = Downregulation of AR protein expression in human LAPC4 cells assessed as AR levels at 10 uM incubated for 24 hrs by immunoblotting analysis; assay type: functional
LAPC4 [2] = assay: Inhibition of colony formation in human LAPC4 cells at 10 uM incubated for 10 days by crystal violet staining based assay; assay type: functional; conditions: LAPC4, 240 h, time 10 day
LAPC4 [3] = assay: Cytotoxicity against human LAPC4 cells assessed as cell viability at 20 uM incubated for 72 hrs by resazurin dye based microplate reader assay; assay type: functional; conditions: read-out: Activity
CWR22R = assay: Cytotoxicity against human 22Rv1 cells assessed as cell viability at 20 uM incubated for 72 hrs by resazurin dye based microplate reader assay; assay type: functional; conditions: read-out: Activity
DU-145 = assay: Cytotoxicity against human DU-145 cells assessed as cell viability at 20 uM incubated for 72 hrs by resazurin dye based microplate reader assay; assay type: functional; conditions: read-out: Activity
LAPC4 [4] = assay: Downregulation of PSA protein expression in human LAPC4 cells at 10 uM incubated for 24 hrs by immunoblotting analysis; assay type: functional, cell-based
LAPC4 [5] = assay: Downregulation of Nkx3.1 protein expression in human LAPC4 cells at 10 uM incubated for 24 hrs by immunoblotting analysis; assay type: functional, cell-based
LAPC4 [6] = assay: Inhibition of colony formation in human LAPC4 cells at 5 uM incubated for 10 days by crystal violet staining based assay; assay type: functional, cell-based; conditions: time 10.0 day

SMILES | Activity [1] | inhibition at 10 µM (LAPC4 [2]) [%] | viability at 20 µM (LAPC4 [3]) [%] | viability at 20 µM (CWR22R) [%] | viability at 20 µM (DU-145) [%] | Activity (LAPC4 [4]) | Activity (LAPC4 [5]) | inhibition (LAPC4 [6])
COc1ccc(-n2cc3c(n2)C[C@@H]2CC[C@@H]4[C@H](CC[C@]5(C)[C@@H](O)CC[C@@H]45)[C@@]2(C)C3)cc1 | >=100% | 65 | 99 | ≥ 100 | ≥ 100 | inactive | inactive | –
C[C@]12Cc3cn(-c4ccc(Br)cc4)nc3C[C@@H]1CC[C@@H]1[C@@H]2CC[C@]2(C)[C@@H](O)CC[C@@H]12 | >=100% | 24 | 79 | 83 | ≥ 100 | inactive | inactive | –
C[C@]12Cc3c(nn(-c4ccccc4)c3-c3ccccc3)C[C@@H]1CC[C@@H]1[C@@H]2CC[C@]2(C)C(=O)CC[C@@H]12 | >=100% | 19 | 61 | 19 | 19 | inactive | inactive | –
C[C@]12Cc3cn(-c4ccc(C#N)cc4)nc3C[C@@H]1CC[C@@H]1[C@@H]2CC[C@]2(C)[C@@H](O)CC[C@@H]12 | >=100% | 76 | 93 | 94 | 97 | inactive | inactive | –
Cc1c2c(nn1C)C[C@@H]1CC[C@@H]3[C@H](CC[C@]4(C)C(=O)CC[C@@H]34)[C@@]1(C)C2 | 86% | 67 | 53 | 103 | ≥ 100 | inactive | inactive | –
Cc1ccc(-n2cc3c(n2)C[C@@H]2CC[C@@H]4[C@H](CC[C@]5(C)[C@@H](O)CC[C@@H]45)[C@@]2(C)C3)cc1 | >=100% | 42 | ≥ 100 | ≥ 100 | 100 | inactive | inactive | –
C[C@]12Cc3c(nn(-c4ccccc4)c3-c3ccc(O)cc3)C[C@@H]1CC[C@@H]1[C@@H]2CC[C@]2(C)[C@@H](O)CC[C@@H]12 | >=100% | 22 | 63 | 37 | 57 | inactive | inactive | –
Cn1nc2c(c1-c1ccccc1)C[C@@]1(C)[C@@H](CC[C@@H]3[C@@H]1CC[C@]1(C)C(=O)CC[C@@H]31)C2 | 65% | 21 | 36 | 68 | ≥ 100 | – | – | Active
Cn1nc2c(c1-c1cccs1)C[C@@]1(C)[C@@H](CC[C@@H]3[C@@H]1CC[C@]1(C)C(=O)CC[C@@H]31)C2 | 92% | 4 | 31 | 68 | 100 | – | – | Active
Cn1nc2c(c1-c1ccc(Cl)cc1)C[C@@]1(C)[C@@H](CC[C@@H]3[C@@H]1CC[C@]1(C)[C@@H](O)CC[C@@H]31)C2 | 91% | 26 | 41 | 29 | 90 | – | – | Active
Cn1nc2c(c1-c1ccc(Br)cc1)C[C@@]1(C)[C@@H](CC[C@@H]3[C@@H]1CC[C@]1(C)[C@@H](O)CC[C@@H]31)C2 | 79% | 16 | 42 | 21 | 94 | – | – | Active
COc1ccc(-c2c3c(nn2C)C[C@@H]2CC[C@@H]4[C@H](CC[C@]5(C)[C@@H](O)CC[C@@H]45)[C@@]2(C)C3)cc1 | 85% | 5 | 51 | 33 | ≥ 100 | – | – | Active
Cc1ccc(-c2c3c(nn2C)C[C@@H]2CC[C@@H]4[C@H](CC[C@]5(C)[C@@H](O)CC[C@@H]45)[C@@]2(C)C3)cc1 | 96% | 28 | 52 | 36 | 98 | – | – | Active
C[C@]12Cc3cn(-c4ccc([N+](=O)[O-])cc4)nc3C[C@@H]1CC[C@@H]1[C@@H]2CC[C@]2(C)[C@@H](O)CC[C@@H]12 | >=100% | 93 | 96 | ≥ 100 | 99 | inactive | inactive | –
Cn1nc2c(c1-c1ccc(F)cc1)C[C@@]1(C)[C@@H](CC[C@@H]3[C@@H]1CC[C@]1(C)[C@@H](O)CC[C@@H]31)C2 | 83% | 16 | 44 | 26 | 89 | – | – | Active
C[C@]12Cc3cn(-c4ccc(Cl)cc4)nc3C[C@@H]1CC[C@@H]1[C@@H]2CC[C@]2(C)[C@@H](O)CC[C@@H]12 | >=100% | 98 | 82 | ≥ 100 | ≥ 100 | inactive | inactive | –
Cn1nc2c(c1-c1ccco1)C[C@@]1(C)[C@@H](CC[C@@H]3[C@@H]1CC[C@]1(C)C(=O)CC[C@@H]31)C2 | 97% | 5 | 39 | 43 | 100 | – | – | Active
Cn1nc2c(c1-c1ccc(Cl)cc1)C[C@@]1(C)[C@@H](CC[C@@H]3[C@@H]1CC[C@]1(C)C(=O)CC[C@@H]31)C2 | 67% | 11 | 21 | 61 | 98 | – | – | Active
Cn1nc2c(c1-c1ccc(F)cc1)C[C@@]1(C)[C@@H](CC[C@@H]3[C@@H]1CC[C@]1(C)C(=O)CC[C@@H]31)C2 | 100% | 17 | 29 | 57 | 90 | – | – | Active
Cc1ccc(-c2c3c(nn2C)C[C@@H]2CC[C@@H]4[C@H](CC[C@]5(C)C(=O)CC[C@@H]45)[C@@]2(C)C3)cc1 | 92% | 23 | 34 | 73 | ≥ 100 | – | – | Active
COc1ccc(-c2c3c(nn2C)C[C@@H]2CC[C@@H]4[C@H](CC[C@]5(C)C(=O)CC[C@@H]45)[C@@]2(C)C3)cc1 | >=100% | 34 | 35 | 58 | 97 | – | – | Active
